In data set [1] the target is T1, Solute carrier organic anion transporter family member 1A1 (Rattus norvegicus, UniProt P46720).
T1 sequence (P46720 whole entry): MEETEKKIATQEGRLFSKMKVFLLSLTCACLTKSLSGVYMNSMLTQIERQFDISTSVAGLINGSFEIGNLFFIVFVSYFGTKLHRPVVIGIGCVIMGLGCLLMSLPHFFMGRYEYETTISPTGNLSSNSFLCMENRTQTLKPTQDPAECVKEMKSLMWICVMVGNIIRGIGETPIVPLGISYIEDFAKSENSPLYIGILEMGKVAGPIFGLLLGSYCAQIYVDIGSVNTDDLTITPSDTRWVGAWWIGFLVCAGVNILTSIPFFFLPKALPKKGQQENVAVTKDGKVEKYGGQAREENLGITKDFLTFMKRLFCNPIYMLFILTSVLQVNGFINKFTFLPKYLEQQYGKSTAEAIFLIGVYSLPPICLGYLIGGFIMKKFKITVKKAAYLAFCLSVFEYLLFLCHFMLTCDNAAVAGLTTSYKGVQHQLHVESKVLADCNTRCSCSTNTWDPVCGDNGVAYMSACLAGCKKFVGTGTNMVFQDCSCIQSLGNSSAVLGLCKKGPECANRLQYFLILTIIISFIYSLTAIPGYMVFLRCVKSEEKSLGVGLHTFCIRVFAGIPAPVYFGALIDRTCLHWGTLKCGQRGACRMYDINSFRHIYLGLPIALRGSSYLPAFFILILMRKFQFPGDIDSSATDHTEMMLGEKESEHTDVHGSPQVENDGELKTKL
As to the kind of experiment: TP_TRANSPORTER: inhibition of Taurocholate uptake (Taurocholate: 0.5 uM, BMS243887: 50 uM) in Oatp1-expressing 293c18 cells. The data set is classed as functional, cell-based. Conditions: human, hek293-ebna.

The target of data set [2] is T2, Solute carrier organic anion transporter family member 1B1 (Homo sapiens, UniProt Q9Y6L6).
T2 sequence (Q9Y6L6 whole entry): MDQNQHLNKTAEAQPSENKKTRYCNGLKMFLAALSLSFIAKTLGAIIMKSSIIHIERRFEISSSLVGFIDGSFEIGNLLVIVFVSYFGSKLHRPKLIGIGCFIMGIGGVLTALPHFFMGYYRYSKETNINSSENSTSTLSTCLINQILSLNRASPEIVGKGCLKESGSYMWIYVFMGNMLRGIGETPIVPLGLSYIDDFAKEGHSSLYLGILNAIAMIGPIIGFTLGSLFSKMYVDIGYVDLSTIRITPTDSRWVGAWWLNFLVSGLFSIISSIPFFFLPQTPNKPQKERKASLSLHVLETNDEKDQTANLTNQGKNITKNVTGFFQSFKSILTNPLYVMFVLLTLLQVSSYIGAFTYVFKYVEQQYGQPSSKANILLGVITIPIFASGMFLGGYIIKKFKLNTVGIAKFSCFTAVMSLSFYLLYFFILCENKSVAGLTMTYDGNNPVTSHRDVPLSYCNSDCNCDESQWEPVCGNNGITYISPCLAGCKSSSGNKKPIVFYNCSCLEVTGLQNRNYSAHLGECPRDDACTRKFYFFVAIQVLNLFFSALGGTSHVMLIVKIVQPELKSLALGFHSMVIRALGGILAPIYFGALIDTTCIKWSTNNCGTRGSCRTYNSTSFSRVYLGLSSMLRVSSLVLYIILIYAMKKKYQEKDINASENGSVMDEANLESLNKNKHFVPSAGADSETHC
As to the kind of experiment: TP_TRANSPORTER: inhibition of Taurocholate uptake (Taurocholate: 0.5 uM, BMS243887: 50 uM) in OATP-C-expressing 293c18 cells. Format: functional, cell-based. Conditions: hek293-ebna.

Data set [3] concerns the target T2, Solute carrier organic anion transporter family member 1B1. As to the kind of experiment: TP_TRANSPORTER: inhibition of Pravastatin uptake (Pravastatin: 0.5 uM, BMS243887: 50 uM) in OATP-C-expressing 293c18 cells. Format: functional, cell-based. The following applies: hek293-ebna.
Data set [4] deals with T1, Solute carrier organic anion transporter family member 1A1. Put plainly: TP_TRANSPORTER: inhibition of Pravastatin uptake (Pravastatin: 0.5 uM, BMS243887: 50 uM) in Oatp1-expressing 293c18 cells. The data set is classed as functional, cell-based. The following applies: human, hek293-ebna.
Data set [5] concerns the target T2, Solute carrier organic anion transporter family member 1B1. Put plainly: TP_TRANSPORTER: inhibition of Taurocholate uptake (Taurocholate: 0.5 uM, Atorvastatin: 50 uM) in OATP-C-expressing 293c18 cells. The data set is classed as functional, cell-based. The following applies: hek293-ebna.
For data set [6], the target named is T1, Solute carrier organic anion transporter family member 1A1. Put plainly: TP_TRANSPORTER: inhibition of Pravastatin uptake (Pravastatin: 0.5 uM, Atorvastatin: 50 uM) in Oatp1-expressing 293c18 cells. Format: functional, cell-based. The following applies: human, hek293-ebna.
Data set [7] has as its target T2, Solute carrier organic anion transporter family member 1B1. As to the kind of experiment: TP_TRANSPORTER: inhibition of Pravastatin uptake (Pravastatin: 0.5 uM, Atorvastatin: 50 uM) in OATP-C-expressing 293c18 cells. The data set is classed as functional, cell-based. Conditions: hek293-ebna.
For data set [8], the target named is T1, Solute carrier organic anion transporter family member 1A1. As to the kind of experiment: TP_TRANSPORTER: inhibition of Taurocholate uptake (Taurocholate: 0.5 uM, Atorvastatin: 50 uM) in Oatp1-expressing 293c18 cells. Format: functional, cell-based. Conditions: human, hek293-ebna.
Data set [9] addresses T2, Solute carrier organic anion transporter family member 1B1. As to the kind of experiment: TP_TRANSPORTER: inhibition of Taurocholate uptake (Taurocholate: 0.5 uM, BMS241423: 50 uM) in OATP-C-expressing 293c18 cells. The data set is classed as functional, cell-based. The following applies: hek293-ebna.
For data set [10] the target is unchanged. As to the kind of experiment: TP_TRANSPORTER: inhibition of Pravastatin uptake (Pravastatin: 0.5 uM, BMS241423: 50 uM) in OATP-C-expressing 293c18 cells. Format: functional, cell-based. Conditions: hek293-ebna.
The target in data set [11] is T1, Solute carrier organic anion transporter family member 1A1. Put plainly: TP_TRANSPORTER: inhibition of Pravastatin uptake (Pravastatin: 0.5 uM, BMS241423: 50 uM) in Oatp1-expressing 293c18 cells. The data set is classed as functional, cell-based. Conditions: human, hek293-ebna.
Data set [12] has the same target. As to the kind of experiment: TP_TRANSPORTER: inhibition of Taurocholate uptake (Taurocholate: 0.5 uM, BMS241423: 50 uM) in Oatp1-expressing 293c18 cells. The following applies: human, hek293-ebna. The data set is classed as functional, cell-based.
The target of data set [13] is T2, Solute carrier organic anion transporter family member 1B1. As to the kind of experiment: (§1) TP_TRANSPORTER: uptake in OATP-C-expressing 293c18 cells. The data set is classed as functional, cell-based. Conditions: hek293-ebna.
Data set [14] deals with T1, Solute carrier organic anion transporter family member 1A1. As to the kind of experiment: TP_TRANSPORTER: inhibition of Taurocholate uptake (Taurocholate: 0.5 uM, Lovastatin: 50 uM) in Oatp1-expressing 293c18 cells. The data set is classed as functional, cell-based. The following applies: human, hek293-ebna.
For data set [15], the target named is T2, Solute carrier organic anion transporter family member 1B1. Put plainly: TP_TRANSPORTER: inhibition of Taurocholate uptake (Taurocholate: 0.5 uM, Lovastatin: 50 uM) in OATP-C-expressing 293c18 cells. The data set is classed as functional, cell-based. The following applies: hek293-ebna.
Data set [16] addresses T1, Solute carrier organic anion transporter family member 1A1. Put plainly: TP_TRANSPORTER: inhibition of Pravastatin uptake (Pravastatin: 0.5 uM, Lovastatin: 50 uM) in Oatp1-expressing 293c18 cells. Format: functional, cell-based. The following applies: human, hek293-ebna.
Data set [17] deals with T2, Solute carrier organic anion transporter family member 1B1. As to the kind of experiment: TP_TRANSPORTER: inhibition of Pravastatin uptake (Pravastatin: 0.5 uM, Lovastatin: 50 uM) in OATP-C-expressing 293c18 cells. The following applies: hek293-ebna. The data set is classed as functional, cell-based.
In data set [18] the target is T1, Solute carrier organic anion transporter family member 1A1. Put plainly: TP_TRANSPORTER: inhibition of Taurocholate uptake (Taurocholate: 0.5 uM, DHEAS: 50 uM) in Oatp1-expressing 293c18 cells. Format: functional, cell-based. The following applies: human, hek293-ebna.
For data set [19] the target is unchanged. As to the kind of experiment: TP_TRANSPORTER: inhibition of Pravastatin uptake (Pravastatin: 0.5 uM, DHEAS: 50 uM) in Oatp1-expressing 293c18 cells. The data set is classed as functional, cell-based. The following applies: human, hek293-ebna.
Data set [20] shares this target. Put plainly: TP_TRANSPORTER: inhibition of Pravastatin uptake (Pravastatin: 0.5 uM, Simvastatin: 50 uM) in Oatp1-expressing 293c18 cells. Format: functional, cell-based. The following applies: human, hek293-ebna.
Data set [21] has the same target. Put plainly: TP_TRANSPORTER: inhibition of Taurocholate uptake (Taurocholate: 0.5 uM, Simvastatin: 50 uM) in Oatp1-expressing 293c18 cells. The data set is classed as functional, cell-based. Conditions: human, hek293-ebna.
Substrate in data set [22]: CC[C@H](C)C(=O)O[C@H]1C[C@H](O)C=C2C=C[C@H](C)[C@H](CC[C@@H](O)C[C@@H](O)CC(=O)O)[C@H]21
The description is as §1. Format: functional, cell-based, HEK293-EBNA.

Substrate in data set [23]: CC[C@H](C)C(=O)O[C@H]1C[C@H](O)C=C2C=C[C@H](C)[C@H](CC[C@@H](O)C[C@@H](O)CC(=O)O)[C@H]21
As to the kind of experiment: TP_TRANSPORTER: uptake in Oatp1-expressing 293c18 cells. The data set is classed as functional, cell-based, HEK293-EBNA.

This passage reports Activity and Km results from ChEMBL document CHEMBL2073936, “A novel human hepatic organic anion transporting polypeptide (OATP2). Identification of a liver-specific human organic anion transporting polypeptide and identification of rat and human hydroxymethylglutaryl-CoA reductase inhibitor transporters” (J Biol Chem, 1999).

As for `CC(C)c1c(C(=O)Nc2ccccc2O)c(-c2ccccc2)c(-c2ccc(F)cc2)n1CC[C@@H](O)C[C@@H](O)CC(=O)O`, the Activity entry in [1], in data set [2], in [3] and in [4] was “inhibitor [+]” each time.

Take `CC(C)c1c(C(=O)Nc2ccccc2)c(-c2ccccc2)c(-c2ccc(F)cc2)n1CC[C@@H](O)C[C@@H](O)CC(=O)O` [ATORVASTATIN]: the Activity result in data set [5], in data set [6], in [7] and in data set [8] was “inhibitor [+]” in each case.

In the case of `CC(C)c1c(C(=O)Nc2ccc(O)cc2)c(-c2ccccc2)c(-c2ccc(F)cc2)n1CC[C@H](O)C[C@H](O)CC(=O)O` [BMS241423], the Activity entry in data set [9], in data set [10], in data set [11] and in [12] was “inhibitor [+]” each time.

On to `N[C@@H](Cc1cc(I)c(Oc2cc(I)c(O)c(I)c2)c(I)c1)C(=O)O` [LEVOTHYROXINE], for which, in [13], the Activity entry was “substrate [+]”.

With `CC[C@H](C)C(=O)O[C@H]1C[C@@H](C)C=C2C=C[C@H](C)[C@H](CC[C@@H]3C[C@@H](O)CC(=O)O3)[C@H]21` [LOVASTATIN], the Activity result in [14], in data set [15], in [16] and in data set [17] was “inhibitor [+]” throughout.

With `C[C@]12CC[C@H](OS(=O)(=O)O)CC1=CC[C@@H]1[C@@H]2CC[C@]2(C)C(=O)CC[C@@H]12` [PRASTERONE SULFURIC ACID], the results for the Activity entry in [18], in [13] and in data set [19] were “inhibitor [+]”, “substrate [+]” and “inhibitor [+]”, respectively.

Consider `CCC(C)(C)C(=O)O[C@H]1C[C@@H](C)C=C2C=C[C@H](C)[C@H](CC[C@@H]3C[C@@H](O)CC(=O)O3)[C@H]21` [SIMVASTATIN], for which the Activity result in data set [20] and in [21] was “inhibitor [+]” each time.

B1: Solute carrier organic anion transporter family member 1B1 (Homo sapiens) (protein)
chain: T2 sequence (Q9Y6L6 whole entry)
Consider B1, for which, in data set [22], the Michaelis-Menten constant (Km) (in general, the concentration of substrate that gives half-maximal velocity) stood at 33.7 µM.

B2: Solute carrier organic anion transporter family member 1A1 (Rattus norvegicus) (protein)
chain: T1 sequence (P46720 whole entry)
Regarding B2, the Km in [23] came to 30 µM.
